Tests used:
[1] = biological target: T1, EGFR (Homo sapiens, UniProt P00533); assay: EGFR substrate phosphorylation assay (HTRF); format: biochemical
T1 construct: made in house; host or cells: baculovirus expression system
Method in brief: (§1)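 Baculovirus-expressed EGFR (0.8 nM) or ErbB2 (10 nM) in enzyme mix, preincubated 1 h at 20 °C with compound (0.00027–47.6 μM final), then 90 min at 20 °C with substrate mix of 20 μM ATP, 0.8 uM biotinylated Peptide C, MnCl2, MOPS pH 7.5. Phosphotyrosine by HTRF; pIC50 reported.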

[2] = biological target: T2, ErbB2 (Homo sapiens, UniProt P04626); assay: ErbB-2 substrate phosphorylation assay (HTRF); format: biochemical
T2 construct: made in house; host or cells: baculovirus expression system
T2 sequence (P04626 23-1255): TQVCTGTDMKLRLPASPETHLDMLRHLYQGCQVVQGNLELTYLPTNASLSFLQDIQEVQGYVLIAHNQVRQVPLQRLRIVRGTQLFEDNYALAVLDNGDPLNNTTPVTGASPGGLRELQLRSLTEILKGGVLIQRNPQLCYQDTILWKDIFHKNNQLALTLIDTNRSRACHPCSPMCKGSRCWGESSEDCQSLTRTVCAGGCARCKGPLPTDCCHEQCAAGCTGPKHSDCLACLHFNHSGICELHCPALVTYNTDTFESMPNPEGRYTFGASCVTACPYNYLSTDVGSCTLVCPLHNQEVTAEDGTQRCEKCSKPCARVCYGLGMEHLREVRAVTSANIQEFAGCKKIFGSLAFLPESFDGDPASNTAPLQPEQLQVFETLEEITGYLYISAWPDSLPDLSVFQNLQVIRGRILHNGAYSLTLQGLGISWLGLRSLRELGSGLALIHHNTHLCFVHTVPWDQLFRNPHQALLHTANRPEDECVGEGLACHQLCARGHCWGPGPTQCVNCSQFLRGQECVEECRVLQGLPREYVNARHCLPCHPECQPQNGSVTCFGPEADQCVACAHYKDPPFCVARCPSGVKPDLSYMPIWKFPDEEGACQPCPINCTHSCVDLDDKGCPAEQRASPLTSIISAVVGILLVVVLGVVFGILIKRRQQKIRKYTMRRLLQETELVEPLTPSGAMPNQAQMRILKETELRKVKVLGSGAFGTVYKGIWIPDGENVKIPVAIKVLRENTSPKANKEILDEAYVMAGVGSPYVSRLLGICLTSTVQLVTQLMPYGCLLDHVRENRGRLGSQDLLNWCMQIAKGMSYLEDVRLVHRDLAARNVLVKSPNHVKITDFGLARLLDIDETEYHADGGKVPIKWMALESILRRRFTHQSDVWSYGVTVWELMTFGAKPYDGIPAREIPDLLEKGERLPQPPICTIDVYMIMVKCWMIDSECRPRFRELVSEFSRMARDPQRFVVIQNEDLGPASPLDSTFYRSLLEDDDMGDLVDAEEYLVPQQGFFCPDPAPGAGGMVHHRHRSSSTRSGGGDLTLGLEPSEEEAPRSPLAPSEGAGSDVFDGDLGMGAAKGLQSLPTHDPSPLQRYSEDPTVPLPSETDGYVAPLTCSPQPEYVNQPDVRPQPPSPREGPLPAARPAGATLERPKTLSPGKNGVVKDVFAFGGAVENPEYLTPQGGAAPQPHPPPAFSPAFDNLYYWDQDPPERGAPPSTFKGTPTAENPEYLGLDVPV
Method in brief: as §1

T1 sequence (P00533 25-1210): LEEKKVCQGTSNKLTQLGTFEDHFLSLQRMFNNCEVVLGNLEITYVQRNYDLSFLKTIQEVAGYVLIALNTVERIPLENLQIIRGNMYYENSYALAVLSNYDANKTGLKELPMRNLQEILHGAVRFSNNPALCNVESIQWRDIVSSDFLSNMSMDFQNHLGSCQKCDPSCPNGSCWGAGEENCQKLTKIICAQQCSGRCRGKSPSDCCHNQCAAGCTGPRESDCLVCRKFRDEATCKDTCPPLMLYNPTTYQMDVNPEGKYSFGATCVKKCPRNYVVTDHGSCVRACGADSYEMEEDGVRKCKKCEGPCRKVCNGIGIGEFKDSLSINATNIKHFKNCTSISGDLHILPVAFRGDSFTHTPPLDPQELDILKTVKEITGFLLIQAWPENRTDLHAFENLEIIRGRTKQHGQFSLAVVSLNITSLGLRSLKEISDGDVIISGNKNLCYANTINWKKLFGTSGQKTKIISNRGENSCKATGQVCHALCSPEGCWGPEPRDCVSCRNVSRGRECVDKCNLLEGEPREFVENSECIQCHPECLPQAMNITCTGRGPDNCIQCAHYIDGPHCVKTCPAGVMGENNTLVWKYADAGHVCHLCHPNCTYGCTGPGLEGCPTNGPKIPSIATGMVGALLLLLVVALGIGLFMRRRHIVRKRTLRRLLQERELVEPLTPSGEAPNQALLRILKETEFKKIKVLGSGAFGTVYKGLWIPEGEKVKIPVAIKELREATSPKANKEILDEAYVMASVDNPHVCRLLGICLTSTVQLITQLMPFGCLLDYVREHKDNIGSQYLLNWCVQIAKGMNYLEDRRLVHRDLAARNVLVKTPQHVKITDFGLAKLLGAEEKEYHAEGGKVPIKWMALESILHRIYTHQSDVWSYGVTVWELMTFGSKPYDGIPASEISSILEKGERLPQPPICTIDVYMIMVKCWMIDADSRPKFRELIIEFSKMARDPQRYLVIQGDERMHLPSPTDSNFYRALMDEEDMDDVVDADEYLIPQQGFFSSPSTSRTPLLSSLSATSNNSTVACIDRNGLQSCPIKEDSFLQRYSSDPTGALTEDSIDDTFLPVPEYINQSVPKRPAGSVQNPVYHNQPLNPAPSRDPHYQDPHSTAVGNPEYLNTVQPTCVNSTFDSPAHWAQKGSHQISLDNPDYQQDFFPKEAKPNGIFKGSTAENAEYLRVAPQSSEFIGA

In the case of `CCNc1nc(-c2cccc(NS(=O)(=O)c3ccccc3)c2)c(-c2ccnc(Nc3ccc(OCCN4CCCC4)c(F)c3)n2)s1` [Example 65], the “EGFR Activity” value [1] is reported as “+++ (at least one pIC50 measurement of greater than 7 against EGFR)” and the IC50 [2] is reported as < 100 nM.

In the case of `CC(=O)N1CCN(c2ccc(Nc3nccc(-c4sc(C(C)C)nc4-c4cccc(NS(=O)(=O)c5cccc(C(F)(F)F)c5)c4)n3)cn2)CC1` [Example 70], the IC50 [1] is reported as > 1000 nM and the IC50 [2] is reported as > 1000 nM.

`CC(C)c1nc(-c2ccc(F)c(NS(=O)(=O)c3c(F)cccc3F)c2)c(-c2ccnc(Nc3ccc(N4CCN5CCOC[C@H]5C4)nc3)n2)s1` [Example 97] was tested, and the IC50 [1] was 100 to 1000 nM and the IC50 [2] was 100 to 1000 nM.

For `CCOc1ccc(Nc2nccc(-c3sc(C(C)C)nc3-c3ccc(F)c(NS(=O)(=O)c4c(F)cccc4F)c3)n2)cc1N1CCN(CCF)CC1` [Example 98], the IC50 [1] was < 100 nM and the IC50 [2] was < 100 nM.

With `CC(C)(C)c1nc(-c2ccc(F)c(NS(=O)(=O)c3c(F)cccc3F)c2)c(-c2ccnc(Nc3ccc(N4CCN(CCF)CC4)c(F)c3)n2)s1` [Example 99] the IC50 [1] was > 1000 nM and the IC50 [2] was < 100 nM.

In the case of `CC(C)c1nc(-c2ccnc(NS(=O)(=O)c3c(F)cccc3F)c2)c(-c2ccnc(Nc3ccc(N4CCN(CCF)CC4)c(F)c3)n2)s1` [Example 100], the IC50 [1] is reported as > 1000 nM and the IC50 [2] is reported as > 1000 nM.

`CC(C)c1nc(-c2cc(F)c(F)c(NS(=O)(=O)c3cccc(F)c3)c2)c(-c2ccnc(Nc3ccc(N4CCN(CCF)CC4)c(F)c3)n2)s1` [Example 101] was tested, and the IC50 [1] was > 1000 nM and the IC50 [2] was 100 to 1000 nM.

In the case of `CC(C)c1nc(-c2ccc(F)c(NS(=O)(=O)c3c(F)cccc3F)c2)c(-c2ccnc(Nc3ccncc3)n2)s1` [Example 102], the IC50 [1] is reported as > 1000 nM and the IC50 [2] is reported as > 1000 nM.

Compound `CN1CCC(c2nc(-c3ccc(F)c(NS(=O)(=O)c4c(F)cccc4F)c3)c(-c3ccnc(Nc4ccc(N5CCOCC5)nc4)n3)s2)CC1` [Example 106] has an IC50 [1] of 100 to 1000 nM and an IC50 [2] of 100 to 1000 nM.

`CC(C)c1nc(-c2ccc(F)c(NS(=O)(=O)c3ccccc3C#N)c2)c(-c2ccnc(Nc3ccc(N4CCOCC4)nc3)n2)s1` [Example 107] showed an IC50 [1] of 100 to 1000 nM and an IC50 [2] of 100 to 1000 nM.

With `CCOc1ccc(Nc2nccc(-c3sc(N4CCCC4)nc3-c3cccc(NS(=O)(=O)c4c(F)cccc4F)c3)n2)cc1N1CCN(CCS(C)(=O)=O)CC1` [Example 109] the IC50 [1] was < 100 nM and the IC50 [2] was < 100 nM.

For `CN(C)c1nc(-c2ccc(F)c(NS(=O)(=O)c3c(F)cccc3F)c2)c(-c2ccnc(Nc3ccc(N4CCN(S(C)(=O)=O)CC4)nc3)n2)s1` [Example 112], the IC50 [1] was 100 to 1000 nM and the IC50 [2] was 100 to 1000 nM.

`CC(C)c1nc(-c2ccc(F)c(NS(=O)(=O)c3c(F)cccc3F)c2)c(-c2ccnc(Nc3cccc(CCS(N)(=O)=O)c3)n2)s1` [Example 113] was tested, and the IC50 [1] was 100 to 1000 nM and the IC50 [2] was < 100 nM.

With `O=S(=O)(Nc1cc(-c2nc(N3CCCC3)oc2-c2ccnc(Nc3ccc(N4CCN(CCF)CC4)c(F)c3)n2)ccc1F)c1c(F)cccc1F` [Example 114] the IC50 [1] was > 1000 nM and the IC50 [2] was 100 to 1000 nM.

Work on `Cc1cc(Nc2nccc(-c3sc(C(C)C)nc3-c3ccc(F)c(NS(=O)(=O)c4c(F)cccc4F)c3)n2)ccn1` [Example 116] yielded an IC50 [1] of 100 to 1000 nM and an IC50 [2] of 100 to 1000 nM.

In the case of `CC(C)c1nc(-c2ccc(F)c(NS(=O)(=O)c3c(F)cccc3F)c2)c(-c2ccnc(Nc3ccnc(N4CCOCC4)c3)n2)s1` [Example 117], the IC50 [1] is reported as 100 to 1000 nM and the IC50 [2] is reported as < 100 nM.

`CS(=O)(=O)CCN1CCN(c2ccc(Nc3nccc(-c4oc(N5CCCC5)nc4-c4ccc(F)c(NS(=O)(=O)c5c(F)cccc5F)c4)n3)cc2F)CC1` [Example 119] was tested, and the IC50 [1] was > 1000 nM and the IC50 [2] was 100 to 1000 nM.

With `COc1cc(N2CCN(CCS(C)(=O)=O)CC2)c(C)cc1Nc1nccc(-c2sc(C(C)(C)C)nc2-c2cccc(NS(=O)(=O)c3c(F)cccc3F)c2)n1` [Example 120] the IC50 [1] was > 1000 nM and the IC50 [2] was < 100 nM.

For `O=S(=O)(Nc1cc(-c2nc(N3CCOCC3)sc2-c2ccnc(Nc3ccc(N4CCOCC4)nc3)n2)ccc1F)c1c(F)cccc1F` [Example 121], the IC50 [1] was 100 to 1000 nM and the IC50 [2] was 100 to 1000 nM.

With `O=S(=O)(Nc1cccc(-c2nc(N3CCOCC3)sc2-c2ccnc(Nc3ccc(N4CCOCC4)nc3)n2)c1F)c1c(F)cccc1F` [Example 122] the IC50 [1] was 100 to 1000 nM and the IC50 [2] was 100 to 1000 nM.
